From publication PMC5514153, “Targeting PTPRZ inhibits stem cell-like properties and tumorigenicity in glioblastoma cells” (Scientific Reports, 2017)

Columns and labels:
C6 cells = experiment: Cell proliferation assay, C6 cells; assay type: cell-based, rat; conditions: 48 h, 2% FBS
Protocol: Figure 7 Cellular effects of NAZ2329 on the malignant phenotypes of C6 cells. (A) Phosphorylation of paxillin at Tyr-118. C6 cells were incubated with NAZ2329 for the indicated periods. Immunoprecipitated paxillin was analyzed by Western blotting using anti-pY118-paxillin and anti-paxillin. Blots are representative of five independent cultures. […] (B) Cell proliferation assay. C6 cells were incubated for 48 h with NAZ2329 in normal medium containing 2% FBS. […] (C) Boyden chamber assay. Cells were allowed to migrate for 3 h. DAPI-stained nuclei are shown before (total) and after (migrated) the removal of cells remaining in the top chamber. Scale bars, 100 µm. […] (D,E) Sphere formation (D) and SOX2 expression (E). C6 cells were cultured in CSC medium for 7 days with indicated concentrations of NAZ2329. Images are representative of five independent cultures. Scale bars, 100 µm. […] (F) Self-renewal of C6 spheres. C6 spheres were initially developed in CSC medium for 7 days, followed by an incubation with NAZ2329 in CSC medium for 5 days. Images are representative of five independent cultures. Scale bars, 100 µm. […]
Cells (3 × 10^4 cells) were inoculated into a 24-well plastic tissue culture plate with 500 µl of DMEM supplemented with 2% FBS and the indicated compounds for 48 h. Cells were harvested by trypsinization and then manually counted with a hemacytometer.

hPTPN1 = target: T1, hPTPN1 (Homo sapiens, UniProt P18031); experiment: In vitro PTPase assay (DiFMUP), PTPN1; assay type: biochemical; conditions: 60-min preincubation
T1 construct: the catalytic domains of PTPN1 and PTPN6 were expressed as glutathione-S-transferase (GST) fusion proteins; GST (N); made in house; host or cells: Escherichia coli BL21
T1 sequence (P18031 3-277 limits assumed): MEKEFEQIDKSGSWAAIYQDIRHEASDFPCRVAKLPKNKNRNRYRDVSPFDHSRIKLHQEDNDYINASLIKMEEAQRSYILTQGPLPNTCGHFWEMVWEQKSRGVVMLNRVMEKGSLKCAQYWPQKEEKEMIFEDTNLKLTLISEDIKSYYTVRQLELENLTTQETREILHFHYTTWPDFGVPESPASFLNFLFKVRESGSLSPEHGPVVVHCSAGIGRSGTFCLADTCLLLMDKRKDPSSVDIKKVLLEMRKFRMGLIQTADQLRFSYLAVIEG
Protocol: Figure 4 NAZ2329, an allosteric inhibitor of R5 RPTP subfamily members. (A) Structure of NAZ2329. (B) Effect of preincubation of NAZ2329 on its inhibitory activity against PTPRZ. Recombinant human PTPRZ1 enzyme (the whole intracellular region) was premixed with NAZ2329 for the indicated times and followed by addition of a fluorogenic DiFMUP (non-specific PTP substrate, 6,8-difluoro-4-methylumbiliferyl phosphate) to measure PTP inhibitory activity. (C) Time dependence. The PTPRZ1 enzyme was added to the inhibitor–substrate mixture, and the inhibitory activity was determined at each time point relative to the vehicle control. (D) Reversibility of inhibition. […] The mixture was then 20-fold diluted, and recovered PTP activity was expressed as the relative activity compared with the vehicle-treated enzyme. […] PTPRZ1 enzymes were preincubated with NAZ2329 for 60 min, and the PTP activity was measured using DiFMUP. […]
Recombinant proteins corresponding to the entire intracellular regions (ICRs) of PTPRZ1, PTPRA, and PTPRM were expressed using a baculovirus-silkworm expression system, and purified as described. The ICRs of PTPRG, PTPRS, and PTPRB and the catalytic domains of PTPN1 and PTPN6 were expressed as glutathione-S-transferase (GST) fusion proteins from each pGEX plasmid in Escherichia coli strain BL21 (ref. [6]). […]

CCOc1ccc(C(F)(F)F)cc1CSc1ccsc1C(=O)NS(=O)(=O)c1ccccc1 [NAZ2329] was tested, and the cell proliferation (C6 cells) was “inhibited cell proliferation” and the IC50 (hPTPN1) was 14.5 µM.
